# Measured values as given in patent publication US8367653B2, “Azetidinyl diamides as monoacylglycerol lipase inhibitors” (Janssen Pharmaceutica NV, priority 2009, dated 2013).
# Read-outs that look alike come from different tables or passages of the source.
# How the values were obtained:
# [1] = test system: CFA-induced paw radiant heat hypersensitivity; test: CFA-Induced Paw Radiant Heat Hypersensitivity; type: in vivo; conditions: CFA thermal hypersensitivity, rat, 30 mg/kg p.o., HPβCD; group mean values; last time point 180 or 300 min
# Method: Each rat was placed in a test chamber on a warm glass surface and allowed to acclimate for approximately 10 min. A radiant thermal stimulus (beam of light) was then focused through the glass onto the plantar surface of each hind paw in turn. The thermal stimulus was automatically shut off by a photoelectric relay when the paw was moved or when the cut-off time was reached (20 sec for radiant heat at ˜5 amps). An initial (baseline) response latency to the thermal stimulus was recorded for each animal prior to the injection of complete Freund's adjuvant (CFA). […] Immediately following the post-CFA latency assessment, the indicated test compound or vehicle was administered orally.
# The percent reversal (% R) of hypersensitivity was calculated in one of two different ways: 1) using group mean values or 2) using individual animal values. More specifically:
# Method 2. For some compounds, the % R of hypersensitivity was calculated separately for each animal according to the following formula: % reversal=[(individual treatment response−individual CFA response)/(individual baseline response−individual CFA response)]×100. Results are given as a mean of the maximum % reversal values calculated for each individual animal.
# [2] = molecular target: T1, MGL (rat brain homogenate) (Rattus norvegicus, UniProt Q8R431); test: 2-AG Accumulation Assay in rat brain homogenate; type: biochemical; conditions: 0.25 h, compound 1 μM, percent of vehicle 2-AG accumulation, read-out: Rat Brain 2AG % VehCntrl (%) @1 μM
# T1 construct: pre-incubated with rat brain homogenate (50 mg); from tissue; host or cells: rat brain homogenate
# T1 sequence (Q8R431 1-303): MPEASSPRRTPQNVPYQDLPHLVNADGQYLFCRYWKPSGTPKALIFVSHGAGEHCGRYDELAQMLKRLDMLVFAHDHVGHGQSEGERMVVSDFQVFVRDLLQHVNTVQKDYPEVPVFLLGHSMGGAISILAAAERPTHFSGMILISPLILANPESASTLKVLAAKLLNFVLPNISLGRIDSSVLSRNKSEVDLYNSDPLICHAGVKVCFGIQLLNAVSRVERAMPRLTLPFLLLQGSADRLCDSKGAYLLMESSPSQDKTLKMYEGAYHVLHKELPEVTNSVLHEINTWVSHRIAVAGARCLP
# [3] = test system: hot plate; conditions: cited from earlier work
# [4] = test system: tail flick; conditions: intravenous delivery (Mechoulam et al. 1995); cited from earlier work
# [5] = test system: murine model of acute inflammation; conditions: Comelli et al. 2007; cited from earlier work
smiles,measurement,setting,value
O=C(c1ccc(-c2cccc(C(F)(F)F)c2)c(Cl)c1)N1CC(N2CCN(C(=O)c3cscn3)CC2)C1 [Cpd 1102],Method 1: peak % reversal,[1],38%
"Cc1ccc(-n2ccc3cc(C(=O)N4CC(N5CCN(C(=O)c6nccs6)CC5)C4)ccc32)nc1 [Cpd 1073, 1-(5-Methylpyridin-2-yl)-5-({3-[4-(1,3-thiazol-2-ylcarbonyl)piperazin-1-yl]azetidin-1-yl}carbonyl)-1H-indole]",activity at 1 µM,[2],749%
"CCCCC/C=C\C/C=C\C/C=C\C/C=C\CCCC(=O)OC(CO)CO [2-AG, 2-arachidinoylglycerol]",analgesia in the hot plate assay,[3]; combined with 2-linoleoyl glycerol and 2-palmitoyl glycerol (Ben-Shabat et al. 1998),significant analgesia
same,analgesia in the hot plate assay,[3]; given alone (Ben-Shabat et al. 1998),not analgesic
same,analgesia in the hot plate assay,[3]; intravenous delivery (Lichtman et al. 2002),produces analgesia
same,analgesia in the tail flick assay,[4],produces analgesia
C/C(=C\c1ccc(Cl)cc1)c1c(C)c(C(=O)N2CC(N3CCN(C(=O)c4nccs4)CC3)C2)nn1-c1ccc(Cl)cc1Cl [Cpd 1010],Method 1: peak % reversal,[1],23.4%
O=C(Nc1cccc(-c2ccccc2)c1)OC1CCCCC1 [URB602],antinociceptive effect,[5],antinociceptive effect
